{"source": "patent US20260315464A1", "about": "“COMPOSITIONS, METHODS, AND SYSTEMS FOR MODULATING SPLICING OF MSH3” (REVIR THERAPEUTICS, INC., priority 2023, published 2026)", "tested_on": "MSH3", "test": "QPCR assay for levels of MSH3 upon compound treatment in HEK293T or AD293 cells (fold-change of MSH3 transcript, EC50 of MSH3 downregulation; total MSH3 exons 13/14, exons 20/21; Table 8)", "assay_type": "cell-based", "details": "for mrna remaining at 1 µM / mrna remaining at 10 µM: Homo sapiens, fold-change of the MSH3 transcript, normalized to GAPDH; for mrna remaining at 1 µM: 1 μM compound; for mrna remaining at 10 µM: 10 μM compound; for EC50: EC50 of MSH3 downregulation, XtalPi", "description": "HEK293T or AD293 cells were treated with Compound 274 at 1 μM and […]. RNA, cDNA and qPCR was prepared using TaqMan Cells-to-CT Express kit (ThermoFisher Scientific). Taqman assays (ThermoFisher Scientific) were used for quantification of total MSH3 exons 13/14 (cat #4351372, ID #: Hs00988993_ml), total MSH3 exons 20/21 (cat #4351372, ID #: Hs00989000_ml), exon 13/PE14A (Fwd: 5′-[…]; Rev: 5′-[…]; Probe: 5′-[…]) and exon 20/PE21A (Fwd: 5′-[…]; Rev: 5′-[…]; Probe: 5′-[…]) mRNA expression. Taqman GAPDH (cat #4448489, ID #: Hs02758991_g1) was used as a reference for data normalization."}
{"smiles": "Cc1nc(C)c(-c2cnc3c(c2)C(=O)N(c2cnc(N(C)[C@H]4C[C@]5(C)CC[C@](C)(C4)N5)nn2)C3)s1", "note": "[Compound 200, 6-(3-(((1R,3s,5S)-1,5-dimethyl-8-azabicyclo[3.2.1]octan-3-yl)(methyl)amino)-1,2,4-triazin-6-yl)-3-(2,4-dimethylthiazol-5-yl)-6,7-dihydro-5H-pyrrolo[3,4-b]pyridin-5-one]", "values": [{"measurement": "mrna remaining at 1 µM", "result": 53, "unit": "%"}, {"measurement": "mrna remaining at 10 µM", "result": 53, "unit": "%"}]}
{"smiles": "Cn1cc(-c2cnc3c(c2)C(=O)N(c2ccc(O[C@H]4C[C@]5(C)CC[C@](C)(C4)N5)nn2)C3)c(C(F)(F)F)n1", "note": "[Compound 201, 6-(6-(((1R,3s,5S)-1,5-dimethyl-8-azabicyclo[3.2.1]octan-3-yl)oxy)pyridazin-3-yl)-3-(1-methyl-3-(trifluoromethyl)-1H-pyrazol-4-yl)-6,7-dihydro-5H-pyrrolo[3,4-b]pyridin-5-one]", "values": [{"measurement": "mrna remaining at 1 µM", "result": 90, "unit": "%"}, {"measurement": "mrna remaining at 10 µM", "result": 91, "unit": "%"}]}
{"smiles": "COc1cc(OC2CC(C)(C)NC(C)(C)C2)nnc1N1Cc2ncc(-c3cn(C)nc3C)cc2C1=O", "note": "[Compound 203, 3-(1,3-dimethyl-1H-pyrazol-4-yl)-6-(4-methoxy-6-((2,2,6,6-tetramethylpiperidin-4-yl)oxy)pyridazin-3-yl)-6,7-dihydro-5H-pyrrolo[3,4-b]pyridin-5-one]", "values": [{"measurement": "mrna remaining at 1 µM", "result": 56, "unit": "%"}, {"measurement": "mrna remaining at 10 µM", "result": 62, "unit": "%"}]}
{"smiles": "Cc1nn(C)cc1-c1cnc2c(c1)C(=O)N(c1ccc(OC3CC(C)(C)NC4(CC4)C3)nn1)C2", "note": "(stereo not drawn) [Compound 205, 3-(1,3-dimethyl-1H-pyrazol-4-yl)-6-(6-((5,5-dimethyl-4-azaspiro[2.5]octan-7-yl)oxy)pyridazin-3-yl)-6,7-dihydro-5H-pyrrolo[3,4-b]pyridin-5-one]", "values": [{"measurement": "EC50", "result": 1420, "unit": "nM"}, {"measurement": "mrna remaining at 1 µM", "result": 90, "unit": "%"}, {"measurement": "mrna remaining at 10 µM", "result": 14, "unit": "%"}]}
{"smiles": "Cc1nn(C)nc1-c1cnc2c(c1)C(=O)N(c1ccc(O[C@H]3C[C@]4(C)CC[C@](C)(C3)N4)nn1)C2", "note": "[Compound 206, 3-(2,5-dimethyl-2H-1,2,3-triazol-4-yl)-6-(6-(((1R,3s,5S)-1,5-dimethyl-8-azabicyclo[3.2.1]octan-3-yl)oxy)pyridazin-3-yl)-6,7-dihydro-5H-pyrrolo[3,4-b]pyridin-5-one]", "values": [{"measurement": "EC50", "result": 507, "unit": "nM"}, {"measurement": "mrna remaining at 1 µM", "result": 36, "unit": "%"}, {"measurement": "mrna remaining at 10 µM", "result": 13, "unit": "%"}]}
{"smiles": "Cc1nn(C)cc1-c1cnc2c(c1)C(=O)N(c1ccc(NC3CC(C)(C)NC(C)(C)C3)nn1)C2", "note": "[Compound 207, 3-(1,3-dimethyl-1H-pyrazol-4-yl)-6-(6-((2,2,6,6-tetramethylpiperidin-4-yl)amino)pyridazin-3-yl)-6,7-dihydro-5H-pyrrolo[3,4-b]pyridin-5-one]", "values": [{"measurement": "EC50", "result": "~3050", "unit": "nM"}, {"measurement": "mrna remaining at 1 µM", "result": 108, "unit": "%"}, {"measurement": "mrna remaining at 10 µM", "result": 18, "unit": "%"}]}
{"smiles": "Cc1nn(C)cc1-c1cnc2c(c1)C(=O)N(c1ccc(O[C@@H]3CC(C)(C)NC(C)(C)[C@@H]3F)nn1)C2", "note": "[Compound 211, 3-(1,3-dimethyl-1H-pyrazol-4-yl)-6-(6-(((3S,4R)-3-fluoro-2,2,6,6-tetramethylpiperidin-4-yl)oxy)pyridazin-3-yl)-6,7-dihydro-5H-pyrrolo[3,4-b]pyridin-5-one]", "values": [{"measurement": "mrna remaining at 1 µM", "result": 90, "unit": "%"}, {"measurement": "mrna remaining at 10 µM", "result": 55, "unit": "%"}]}
{"smiles": "Cc1nn(C)cc1-c1cnc2c(c1)C(=O)N(c1ccc(O[C@@H]3C[C@@]4(C)CC[C@](C)(N4)[C@@H]3F)nn1)C2", "note": "[Compound 214, 3-(1,3-dimethyl-1H-pyrazol-4-yl)-6-(6-(((1S,2S,3R,5R)-2-fluoro-1,5-dimethyl-8-azabicyclo[3.2.1]octan-3-yl)oxy)pyridazin-3-yl)-6,7-dihydro-5H-pyrrolo[3,4-b]pyridin-5-one]", "values": [{"measurement": "mrna remaining at 1 µM", "result": 95, "unit": "%"}, {"measurement": "mrna remaining at 10 µM", "result": 24, "unit": "%"}]}
{"smiles": "Cc1nn(C)cc1-c1cnc2c(c1)C(=O)N(c1ccc(O[C@@H]3C[C@@]4(C)CC[C@](C)(N4)[C@H]3F)nn1)C2", "note": "[Compound 215, 3-(1,3-dimethyl-1H-pyrazol-4-yl)-6-(6-(((1S,2R,3R,5R)-2-fluoro-1,5-dimethyl-8-azabicyclo[3.2.1]octan-3-yl)oxy)pyridazin-3-yl)-6,7-dihydro-5H-pyrrolo[3,4-b]pyridin-5-one]", "values": [{"measurement": "mrna remaining at 1 µM", "result": 97, "unit": "%"}, {"measurement": "mrna remaining at 10 µM", "result": 76, "unit": "%"}]}
